The target of one experiment is human orexin-2 receptor (Homo sapiens (Human), UniProt O43614). Description: In vitro intracellular calcium measurements (FLIPR), antagonistic activity on orexin-2 receptor. Format: cell-based. Conditions: CHO cells expressing human orexin-2 receptor; FLIPR; 3 nM orexin-A agonist; 120 min antagonist incubation; geometric mean if determined several times; read-out: IC50 OX2. As to the method: (§1) In Vitro Assay: Intracellular Calcium Measurements:
(§2) Chinese hamster ovary (CHO) cells expressing the human orexin-1 receptor and the human orexin-2 receptor, respectively, are grown in culture medium (Ham F-12 with L-Glutamine) containing 300 μg/mL G418, 100 U/mL penicillin, 100 μg/mL streptomycin and 10% heat inactivated fetal calf serum (FCS). The cells are seeded at 20′000 cells/well into 384-well black clear bottom sterile plates (Greiner). The seeded plates are incubated overnight at 37° C. in 5% CO2.
(§3) Within the Fluorescent Imaging Plate Reader (FLIPR Tetra, Molecular Devices), antagonists are added to the plate in a volume of 10 μL/well, incubated for 120 min and finally 10 μL/well of agonist is added. Fluorescence is measured for each well at 1 second intervals, and the height of each fluorescence peak is compared to the height of the fluorescence peak induced by 3 nM orexin-A with vehicle in place of antagonist. […] Optimized conditions were achieved by adjustment of pipetting speed and cell splitting regime. The calculated IC50 values may fluctuate depending on the daily cellular assay performance. Fluctuations of this kind are known to those skilled in the art.

A further experiment deals with human orexin-1 receptor (Homo sapiens (Human), UniProt O43613). Description: In vitro intracellular calcium measurements (FLIPR), antagonistic activity on orexin-1 receptor. Format: cell-based. Conditions: CHO cells expressing human orexin-1 receptor; FLIPR; 3 nM orexin-A agonist; 120 min antagonist incubation; geometric mean if determined several times; read-out: IC50 OX1. As to the method: as §1, §2, §3
human orexin-1 receptor, sequence (O43613 whole entry): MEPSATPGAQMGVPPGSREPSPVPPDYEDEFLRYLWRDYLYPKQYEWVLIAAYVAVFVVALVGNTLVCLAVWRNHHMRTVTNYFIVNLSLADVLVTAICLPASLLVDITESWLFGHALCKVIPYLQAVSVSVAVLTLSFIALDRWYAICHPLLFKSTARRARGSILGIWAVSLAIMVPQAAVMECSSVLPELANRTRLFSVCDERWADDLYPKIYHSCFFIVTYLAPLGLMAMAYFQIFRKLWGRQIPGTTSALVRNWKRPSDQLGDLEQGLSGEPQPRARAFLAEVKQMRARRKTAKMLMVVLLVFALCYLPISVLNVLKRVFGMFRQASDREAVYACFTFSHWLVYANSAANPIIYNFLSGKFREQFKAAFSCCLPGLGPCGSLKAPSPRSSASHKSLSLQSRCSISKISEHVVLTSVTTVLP

human orexin-2 receptor, sequence (O43614 whole entry): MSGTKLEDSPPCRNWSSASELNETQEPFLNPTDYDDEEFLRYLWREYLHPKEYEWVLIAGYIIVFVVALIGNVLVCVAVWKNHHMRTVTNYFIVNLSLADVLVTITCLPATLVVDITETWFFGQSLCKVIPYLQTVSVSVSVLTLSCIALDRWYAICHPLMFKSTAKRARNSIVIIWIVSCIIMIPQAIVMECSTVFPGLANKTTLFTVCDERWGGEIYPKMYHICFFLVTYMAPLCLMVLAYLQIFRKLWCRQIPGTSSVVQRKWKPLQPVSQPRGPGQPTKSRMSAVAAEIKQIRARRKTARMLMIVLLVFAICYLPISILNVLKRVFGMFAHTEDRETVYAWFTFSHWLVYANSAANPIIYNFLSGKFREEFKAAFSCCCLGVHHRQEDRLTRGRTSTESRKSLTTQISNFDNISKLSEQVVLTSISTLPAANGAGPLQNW

Take `Cc1ccc(C(=O)N2C[C@@H](C)OC[C@H]2Cc2cc(-c3ncccn3)ccc2F)c(-n2nccn2)c1C` [Example 151, (3,4-Dimethyl-2-[1,2,3]triazol-2-yl-phenyl)-[(2R,5R)-5-(2-fluoro-5-pyrimidin-2-yl-benzyl)-2-methyl-morpholin-4-yl]-methanone]: the figures for the IC50 on human orexin-2 receptor and at human orexin-1 receptor were 818 nM and 8 nM, respectively.
Consider `Cc1cccc(C(=O)N2[C@H](Cc3cccc(-n4nccn4)c3)COC[C@H]2C)c1-n1nccn1` [Example 70, [(3R,5R)-3-Methyl-5-(3-[1,2,3]triazol-2-yl-benzyl)-morpholin-4-yl]-(3-methyl-2-[1,2,3]triazol-2-yl-phenyl)-methanone], for which the IC50 on human orexin-2 receptor turned out to be 2610 nM; at human orexin-1 receptor it was 5 nM.
On to `O=C(c1c(F)cccc1-n1nccn1)N1CCOC[C@H]1Cc1cc(-n2nccn2)ccc1F` [Example 136, [(R)-3-(2-Fluoro-5-[1,2,3]triazol-2-yl-benzyl)-morpholin-4-yl]-(2-fluoro-6-[1,2,3]triazol-2-yl-phenyl)-methanone], for which the IC50 at human orexin-2 receptor turned out to be 574 nM; on human orexin-1 receptor, 37 nM.
For `O=C(c1ccc(Cl)cc1-n1nccn1)N1CCOC[C@H]1Cc1cccc(-c2ncon2)c1` [Example 86, (4-Chloro-2-[1,2,3]triazol-2-yl-phenyl)-[(R)-3-(3-[1,2,4]oxadiazol-3-yl-benzyl)-morpholin-4-yl]-methanone], in that order: 2650 nM and 42 nM.
The like results for `Cc1cc(C(=O)N2CCOC[C@H]2Cc2cc(-n3nccn3)ccc2F)c(-n2nccn2)cc1C` [Example 128, (4,5-Dimethyl-2-[1,2,3]triazol-2-yl-phenyl)-[(R)-3-(2-fluoro-5-[1,2,3]triazol-2-yl-benzyl)-morpholin-4-yl]-methanone] were, in that order, 30 nM and 0.7 nM.
For `Cc1ccc(-n2nccn2)c(C(=O)N2CCOC[C@H]2Cc2cccc(-n3cccc3)c2)c1` [Example 38, (5-Methyl-2-[1,2,3]triazol-2-yl-phenyl)-[(R)-3-(3-pyrrol-1-yl-benzyl)-morpholin-4-yl]-methanone], in that order: 131 nM and 1 nM.
Take `O=C(c1cccc(F)c1-n1nccn1)N1CCOC[C@H]1Cc1cccc(-c2ncon2)c1` [Example 82, (3-Fluoro-2-[1,2,3]triazol-2-yl-phenyl)-[(R)-3-(3-[1,2,4]oxadiazol-3-yl-benzyl)-morpholin-4-yl]-methanone]: the IC50 amounted to 1140 nM at human orexin-2 receptor and 41 nM at human orexin-1 receptor.
As for `Cc1ccc(-n2nccn2)c(C(=O)N2CCOC[C@H]2Cc2cccc(-c3cccs3)c2)c1` [Example 45, (5-Methyl-2-[1,2,3]triazol-2-yl-phenyl)-[(R)-3-(3-thiophen-2-yl-benzyl)-morpholin-4-yl]-methanone], the IC50 on human orexin-2 receptor was found to be 119 nM; at human orexin-1 receptor it was 0.1 nM.
The like results for `O=C(c1ccccc1-n1nccn1)N1CCOC[C@H]1Cc1ccc(O)c(-c2ncccn2)c1` [Example 55, [(R)-3-(4-Hydroxy-3-pyrimidin-2-yl-benzyl)-morpholin-4-yl]-(2-[1,2,3]triazol-2-yl-phenyl)-methanone] were, in that order, 2010 nM and 27 nM.
For `Cc1cccc(C(=O)N2[C@H](Cc3cccc(-n4nccn4)c3)COC[C@@H]2C)c1-n1nccn1` [Example 72, [(3S,5R)-3-Methyl-5-(3-[1,2,3]triazol-2-yl-benzyl)-morpholin-4-yl]-(3-methyl-2-[1,2,3]triazol-2-yl-phenyl)-methanone], in that order: 2460 nM and 8 nM.
Consider `Cc1ccc(-n2nccn2)c(C(=O)N2CCOC[C@H]2Cc2cccc(-c3cnccn3)c2)c1` [Example 41, (5-Methyl-2-[1,2,3]triazol-2-yl-phenyl)-[(R)-3-(3-pyrazin-2-yl-benzyl)-morpholin-4-yl]-methanone], for which the values for the IC50 on human orexin-2 receptor and on human orexin-1 receptor were 1040 nM and 8 nM, respectively.
For `O=C(c1ccccc1-n1nccn1)N1CCOC[C@@H]1Cc1cccc(-n2nccn2)c1` [Example 13, [(S)-3-(3-[1,2,3]Triazol-2-yl-benzyl)-morpholin-4-yl]-(2-[1,2,3]triazol-2-yl-phenyl)-methanone], in that order: 4440 nM and 966 nM.
For `COc1ccc(C[C@@H]2COCCN2C(=O)c2ccccc2-n2nccn2)cc1-c1cccs1` [Example 10, [(R)-3-(4-Methoxy-3-thiophen-2-yl-benzyl)-morpholin-4-yl]-(2-[1,2,3]triazol-2-yl-phenyl)-methanone], in that order: 31 nM and 0.5 nM.
The like results for `O=C(c1cc(F)ccc1-n1nccn1)N1CCOC[C@H]1Cc1cccc(-c2ncon2)c1` [Example 88, (5-Fluoro-2-[1,2,3]triazol-2-yl-phenyl)-[(R)-3-(3-[1,2,4]oxadiazol-3-yl-benzyl)-morpholin-4-yl]-methanone] were, in that order, 893 nM and 30 nM.
`Cc1ccc(-n2nccn2)c(C(=O)N2CCO[C@H](C)[C@H]2Cc2cccc(-n3nccn3)c2)c1` (single isomer, unassigned) [Example 167, [(2R,3R)-2-Methyl-3-(3-[1,2,3]triazol-2-yl-benzyl)-morpholin-4-yl]-(5-methyl-2-[1,2,3]triazol-2-yl-phenyl)-methanone or [(2S,3R)-2-Methyl-3-(3-[1,2,3]triazol-2-yl-benzyl)-morpholin-4-yl]-(5-methyl-2-[1,2,3]triazol-2-yl-phenyl)-methanone]: the IC50 on human orexin-2 receptor came out at 2380 nM; on human orexin-1 receptor, 19 nM.
Take `Cc1cccc(C(=O)N2CCOC[C@H]2Cc2cc(-c3ncccn3)ccc2F)c1-n1nccn1` [Example 157, [(R)-3-(2-Fluoro-5-pyrimidin-2-yl-benzyl)-morpholin-4-yl]-(3-methyl-2-[1,2,3]triazol-2-yl-phenyl)-methanone]: the IC50 worked out at 2590 nM on human orexin-2 receptor and 39 nM at human orexin-1 receptor.
Take `Cc1cccc(C(=O)N2CCOC[C@H]2Cc2cc(-c3ncon3)ccc2F)c1-n1nccn1` [Example 177, [(R)-3-(2-Fluoro-5-[1,2,4]oxadiazol-3-yl-benzyl)-morpholin-4-yl]-(3-methyl-2-[1,2,3]triazol-2-yl-phenyl)-methanone]: the figures for the IC50 on human orexin-2 receptor and on human orexin-1 receptor were 893 nM and 25 nM, respectively.
For the molecule `COc1ccc(C[C@@H]2COCCN2C(=O)c2c(C)cccc2-n2nccn2)cc1-c1ncon1` [Example 63, [(R)-3-(4-Methoxy-3-[1,2,4]oxadiazol-3-yl-benzyl)-morpholin-4-yl]-(2-methyl-6-[1,2,3]triazol-2-yl-phenyl)-methanone], the IC50 on human orexin-2 receptor is 49 nM; at human orexin-1 receptor, 9 nM.
For `O=C(c1ccccc1-n1nccn1)N1CCOC[C@H]1Cc1cccc(-c2cccs2)c1` [Example 46, [(R)-3-(3-Thiophen-2-yl-benzyl)-morpholin-4-yl]-(2-[1,2,3]triazol-2-yl-phenyl)-methanone], in that order: 163 nM and 0.5 nM.
As for `Cc1cc(-n2nccn2)c(C(=O)N2CCOC[C@H]2Cc2cccc(-n3nccn3)c2)cc1Cl` [Example 103, (5-Chloro-4-methyl-2-[1,2,3]triazol-2-yl-phenyl)-[(R)-3-(3-[1,2,3]triazol-2-yl-benzyl)-morpholin-4-yl]-methanone], the IC50 on human orexin-2 receptor was found to be 47 nM; on human orexin-1 receptor, 0.7 nM.
On to `C[C@@H]1CN(C(=O)c2ccccc2-n2nccn2)[C@H](Cc2cc(-c3ncccn3)ccc2F)CO1` [Example 148, [(2R,5R)-5-(2-Fluoro-5-pyrimidin-2-yl-benzyl)-2-methyl-morpholin-4-yl]-(2-[1,2,3]triazol-2-yl-phenyl)-methanone], for which the IC50 on human orexin-2 receptor came out at 1940 nM; on human orexin-1 receptor it was 39 nM.
For the molecule `Cc1cc(C(=O)N2[C@H](Cc3cccc(-n4nccn4)c3)COC[C@@H]2C)c(-n2nccn2)cc1C` [Example 74, (4,5-Dimethyl-2-[1,2,3]triazol-2-yl-phenyl)-[(3S,5R)-3-methyl-5-(3-[1,2,3]triazol-2-yl-benzyl)-morpholin-4-yl]-methanone], the values for the IC50 on human orexin-2 receptor and at human orexin-1 receptor were 355 nM and 11 nM, respectively.
The like results for `Cc1cc(C)c(-n2nccn2)c(C(=O)N2CCOC[C@H]2Cc2cccc(-c3ncon3)c2)c1` [Example 89, (3,5-Dimethyl-2-[1,2,3]triazol-2-yl-phenyl)-[(R)-3-(3-[1,2,4]oxadiazol-3-yl-benzyl)-morpholin-4-yl]-methanone] were, in that order, 420 nM and 7 nM.
On to `Cc1cc(C(=O)N2CCOC[C@H]2Cc2ccc(C)c(-c3ncon3)c2)c(-n2nccn2)cc1C` [Example 79, (4,5-Dimethyl-2-[1,2,3]triazol-2-yl-phenyl)-[(R)-3-(4-methyl-3-[1,2,4]oxadiazol-3-yl-benzyl)-morpholin-4-yl]-methanone], for which the IC50 on human orexin-2 receptor came to 13 nM; on human orexin-1 receptor, 0.4 nM.
On to `O=C(c1cc(F)c(F)cc1-n1nccn1)N1CCOC[C@H]1Cc1cc(-n2nccn2)ccc1F` [Example 137, (4,5-Difluoro-2-[1,2,3]triazol-2-yl-phenyl)-[(R)-3-(2-fluoro-5-[1,2,3]triazol-2-yl-benzyl)-morpholin-4-yl]-methanone], for which the IC50 at human orexin-2 receptor is 202 nM; at human orexin-1 receptor, 30 nM.

The values above are taken from patent US9150566B2, “2-(1,2,3-triazol-2-yl)benzamide and 3-(1,2,3-triazol-2-YL)picolinamide derivatives as orexin receptor antagonists” (ACTELION PHARMACEUTICALS LTD., priority 2011, dated 2015).
